From PMC7468280 (Scientific Reports, 2020)
“Also recorded” adds a separate entry of the source. Like-named read-outs stand apart in the source and are kept apart here. Positions of bridges follow the written chain, without caps; N, C: chain ends. Non-standard residues stand in square brackets, D forms with d. Residues, ends and D or L forms follow the SMILES beside them. No end group written: not given here.

Columns and labels:
Stability in human serum = format: in vitro ADME; details: 1 mg/ml peptide, 90% human serum in HBSS, 37 °C, HPLC at 220 nm, three replicates (b16 says human plasma)
Description: Figure 3 Representation of the percentage of peptide that remains in solution with respect to the initial one at different times. The percentage is calculated by dividing the area (HPLC analysis) at time “t” by the initial area of the peptide in the test conditions. Bar errors represents SEM of three replicates. Software GraphPad Prism 5.0 (https://graphpad-prism.software.informer.com/5.0/) was used.
The stability of E1P47 peptides was studied in human serum, a protease-rich media. Briefly, a concentration of 1 mg/ml of each peptide was incubated with 90% human serum in Hanks Balanced Salt Solution (HBSS) at 37 °C and aliquots of 40 µl were taken at different time-points during 24 h and treated with 200 µl of methanol to immediately precipitate the serum proteins. After 30 min of centrifugation at 4 °C, the supernatant was analysed by HPLC at 220 nm to calculate the content of intact peptide in each sample and by UPLC/MS to identify the main metabolites generated after the enzymatic hydrolysis.

HIV-1BaL [1] = details: read-out: IC50 against HIV-1BaL, TZM-bl cells sustained, peptide 1 h before virus, 48 h culture in presence of drug (sustained), luciferase, mean ± SEM of three independent experiments in triplicate
HIV-1BaL [2] = details: human colorectal explants, p24 ELISA, mean ± SEM of three independent experiments in triplicate
[3] = 90% human serum in Hanks Balanced Salt Solution (HBSS); details: 37 °C, up to 24 h
[4] = read-out: IC50 against HIV-1BaL, colorectal explants pulse, peptide 1 h before and 2 h during virus (3 h pulse), washed, 15 days culture without drug
[5] = read-out: IC50 against HIV-1BaL, colorectal explants sustained, peptide before and during virus and throughout 15 days culture (sustained)

| Compound | metabolised at 8 h, 1 mg/ml (Stability in human serum; 8 h, methanol precipitation, read-out: peptide degraded at 8 h) [%] | IC50 (HIV-1BaL [1]) [µM] | IC50 (HIV-1BaL [2]; [4]) [µM] | IC50 (HIV-1BaL [2]; [5]) [µM] | stability to human plasma/serum proteases (in words) (Stability in human serum; up to 24 h) | cleaved bond [3] | not cleaved [3] |
| --- | --- | --- | --- | --- | --- | --- | --- |
| CC[C@H](C)[C@H](NC(=O)[C@@H](NC(=O)CNC(=O)[C@H](CCCNC(=N)N)NC(=O)[C@H](Cc1c[nH]c2ccccc12)NC(=O)[C@H](Cc1ccccc1)NC(=O)[C@H](CC(=O)O)NC(=O)[C@H](Cc1ccccc1)NC(=O)[C@@H]1CCCN1C(=O)[C@@H](NC(=O)[C@H](CCCCN)NC(=O)[C@H](Cc1c[nH]c2ccccc12)NC(=O)[C@H](CC(C)C)NC(=O)[C@H](Cc1ccc(O)cc1)NC(=O)[C@H](CCC(=O)O)NC(=O)[C@H](CC(C)C)NC(=O)[C@@H](NC(=O)[C@@H](N)Cc1c[nH]c2ccccc12)[C@@H](C)CC)C(C)C)C(C)C)C(N)=O [E1P47] (H-WILEYLWKVPFDFWRGVI-NH2) | ~50 | 0.76 ± 0.08 | 38.5 ± 17.2 | 8 ± 4.6 |  |  |  |
| CC[C@@H](C)[C@@H](N)C(=O)N[C@@H](C(=O)NCC(=O)N[C@H](CCCNC(=N)N)C(=O)N[C@H](Cc1c[nH]c2ccccc12)C(=O)N[C@H](Cc1ccccc1)C(=O)N[C@H](CC(=O)O)C(=O)N[C@H](Cc1ccccc1)C(=O)N1CCC[C@@H]1C(=O)N[C@@H](C(=O)N[C@H](CCCCN)C(=O)N[C@H](Cc1c[nH]c2ccccc12)C(=O)N[C@H](CC(C)C)C(=O)N[C@H](Cc1ccc(O)cc1)C(=O)N[C@H](CCC(=O)O)C(=O)N[C@H](CC(C)C)C(=O)N[C@@H](C(=O)N[C@H](Cc1c[nH]c2ccccc12)C(N)=O)[C@H](C)CC)C(C)C)C(C)C [RE-E1P47] (H-[dI][dV]G[dR][dW][dF][dD][dF][dP][dV][dK][dW][dL][dY][dE][dL][dI][dW]-NH2) |  |  | 28.7 ± 23.2 | 3.7 ± 1.7 | remained practically unaltered for almost 24 h |  |  |
| WILEYLWKVPFDFWRGVI |  |  |  |  |  | Glu4-Y5, major; also recorded: Gly16-V17, major; also recorded: Trp1-I2, major; also recorded: Phe11-D12, major; also recorded: Trp7-K8, major |  |
| CC[C@H](C)[C@H](NC(=O)[C@@H](NC(=O)CNC(=O)[C@H](CCCNC(=N)N)NC(=O)[C@H](Cc1c[nH]c2ccccc12)NC(=O)[C@H](Cc1ccccc1)NC(=O)[C@H](CC(=O)O)NC(=O)[C@H](Cc1ccccc1)NC(=O)[C@@H]1CCCN1C(=O)[C@@H](NC(=O)[C@@H]1CCCCNC(=O)CC[C@H](NC(=O)[C@H](CC(C)C)NC(=O)[C@@H](NC(=O)[C@@H](N)Cc2c[nH]c3ccccc23)[C@@H](C)CC)C(=O)N[C@@H](Cc2ccc(O)cc2)C(=O)N[C@@H](CC(C)C)C(=O)N[C@@H](Cc2c[nH]c3ccccc23)C(=O)N1)C(C)C)C(C)C)C(N)=O [StP2-E1P47] (H-WILEYLWKVPFDFWRGVI-NH2; lactam 4-8) |  | 0.16 ± 0.01 | 32 ± 15.5 | 2.9 ± 0.4 |  |  |  |
| CC[C@H](C)[C@H](NC(=O)[C@@H](NC(=O)CNC(=O)[C@@H]1CCCCNC(=O)C[C@H](NC(=O)[C@H](Cc2ccccc2)NC(=O)[C@@H]2CCCN2C(=O)[C@@H](NC(=O)[C@H](CCCCN)NC(=O)[C@H](Cc2c[nH]c3ccccc23)NC(=O)[C@H](CC(C)C)NC(=O)[C@H](Cc2ccc(O)cc2)NC(=O)[C@H](CCC(=O)O)NC(=O)[C@H](CC(C)C)NC(=O)[C@@H](NC(=O)[C@@H](N)Cc2c[nH]c3ccccc23)[C@@H](C)CC)C(C)C)C(=O)N[C@@H](Cc2ccccc2)C(=O)N[C@@H](Cc2c[nH]c3ccccc23)C(=O)N1)C(C)C)C(N)=O [StP1-E1P47] (H-WILEYLWKVPFDFWKGVI-NH2; lactam 12-15) |  | 0.11 ± 0.01 | 33 ± 27.4 | 2.8 ± 0.5 |  |  |  |
| WILEYLWKVPFDFWKGVI-NH2 |  |  |  |  |  | Trp7-K8, major | intact |
| WILEYLWKVPFDFWRGVI-NH2 |  |  |  |  |  | Phe11-D12, major | intact |
